Reference: the supplement of paper PMC10307832

How the values were obtained:
Test in all cases: relative viability (nuclei count vs DMSO), 5 days (fraction); higher = more cells survive
[1] = compound: C1COCCN1C2=NC(=NC3=C2OC4=C3C=CC=N4)C5=CC(=CC=C5)NC(=O)C6=CN=C(C=C6)N + CCNC(=O)c1noc(-c2cc(C(C)C)c(O)cc2O)c1-c1ccc(CN2CCOCC2)cc1 [Luminespib] (partner 0.01 µM)
Outline: (§1)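 Medians of duplicate plates are given as relative viability. That measure is the nuclei count in treated wells divided by the count in vehicle wells. Counts were taken on 4× images of lung cancer cell lines in 1536-well plates, 5 days after pin-tool dosing the day after seeding with one drug alone or a fixed anchor-drug dose plus five library-drug doses (not always all listed) in √10 steps.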

[2] = compound: C1COCCN1C2=NC(=NC3=C2OC4=C3C=CC=N4)C5=CC(=CC=C5)NC(=O)C6=CN=C(C=C6)N + Nc1nc2[nH]cc(CCc3ccc(C(=O)N[C@@H](CCC(=O)O)C(=O)O)cc3)c2c(=O)[nH]1 [Pemetrexed] (partner 0.2 µM)
Outline: as §1

SGI-1776 + Foretinib = compound: CN1CCC(CNc2ccc3ncc(-c4cccc(OC(F)(F)F)c4)n3n2)CC1 [SGI-1776] + COc1cc2c(Oc3ccc(NC(=O)C4(C(=O)Nc5ccc(F)cc5)CC4)cc3F)ccnc2cc1OCCCN1CCOCC1 [Foretinib] (partner 0.25 µM)
Outline: as §1

Entinostat + OSI-027 = compound: Nc1ccccc1NC(=O)c1ccc(CNC(=O)OCc2cccnc2)cc1 [Entinostat] + COc1cccc2cc(-c3nc([C@H]4CC[C@H](C(=O)O)CC4)n4ncnc(N)c34)[nH]c12 [OSI-027] (partner 0.5 µM)
Outline: as §1

Row | Cell Line | relative viability ([1]; first compound 0.02 µM) | relative viability ([1]; first compound 0.06325 µM) | relative viability ([1]; first compound 0.2 µM) | relative viability ([1]; first compound 0.6325 µM) | relative viability ([1]; first compound 2 µM) | relative viability ([2]; first compound 0.02 µM) | relative viability ([2]; first compound 0.06325 µM) | relative viability ([2]; first compound 0.2 µM) | relative viability ([2]; first compound 0.6325 µM) | relative viability ([2]; first compound 2 µM) | relative viability (SGI-1776 + Foretinib; first compound 0.08 µM) | relative viability (SGI-1776 + Foretinib; first compound 0.8 µM) | relative viability (SGI-1776 + Foretinib; first compound 2.53 µM) | relative viability (SGI-1776 + Foretinib; first compound 8 µM) | relative viability (Entinostat + OSI-027; first compound 0.02 µM) | relative viability (Entinostat + OSI-027; first compound 0.06325 µM) | relative viability (Entinostat + OSI-027; first compound 0.2 µM) | relative viability (Entinostat + OSI-027; first compound 0.6325 µM) | relative viability (Entinostat + OSI-027; first compound 2 µM)
1 | SK-MES-1 | 0.736 | 0.907 | 0.816 | 0.657 | 0.494 | 0.984 | 0.958 | 0.827 | 0.86 | 0.646 | 1.06 | 0.762 | 0.857 | 0.648 | 0.584 | 0.66 | 0.792 | 0.595 | 0.532
2 | NCI-H3122 | 0.0667 | 0.0713 | 0.0835 | 0.0904 | 0.077 | 0.207 | 0.199 | 0.183 | 0.186 | 0.183 | 0.968 | 0.964 | 1.04 | 1.04 | 1.01 | 1.08 | 0.998 | 0.823 | 0.191
3 | NCI-H2085 | 0.386 | 0.46 | 0.402 | 0.372 | 0.327 | 0.795 | 0.872 | 0.837 | 0.825 | 0.586 | 0.864 | 0.864 | 0.852 | 0.715 | 0.737 | 0.625 | 0.676 | 0.334 | 0.293
4 | PC-14 | 0.184 | 0.189 | 0.13 | 0.151 | 0.148 | 0.14 | 0.135 | 0.129 | 0.0787 | 0.0733 | 1.03 | 0.959 | 0.952 | 0.672 | 0.814 | 0.829 | 0.779 | 0.235 | 0.0869
5 | NCI-H1355 | 0.708 | 0.741 | 0.7 | 0.58 | 0.693 | 1.04 | 1.05 | 1.01 | 0.944 | 0.924 | 0.953 | 1.02 | 0.958 | 0.919 | 0.476 | 0.434 | 0.397 | 0.27 | 0.252
6 | NCI-H1650 | 0.186 | 0.202 | 0.198 | 0.233 | 0.166 | 0.391 | 0.384 | 0.377 | 0.376 | 0.3 | 1.02 | 0.974 | 0.729 | 0.447 | 0.73 | 0.585 | 0.589 | 0.349 | 0.184
7 | NCI-H1755 | 0.447 | 0.666 | 0.436 | 0.235 | 0.239 | 0.447 | 0.431 | 0.465 | 0.388 | 0.362 | 0.949 | 0.931 | 0.881 | 0.854 | 0.693 | 0.776 | 0.684 | 0.566 | 0.309
8 | NCI-H1651 | 0.949 | 0.992 | 0.999 | 0.856 | 0.557 | 0.615 | 0.581 | 0.572 | 0.599 | 0.31 | 0.787 | 0.75 | 0.985 | 0.794 | 0.747 | 0.653 | 0.71 | 0.608 | 0.542
9 | NCI-H647 | 0.31 | 0.193 | 0.189 | 0.125 | 0.127 | 0.175 | 0.155 | 0.141 | 0.138 | 0.114 | 1.22 | 1.24 | 1.18 | 1.15 | 0.677 | 0.537 | 0.562 | 0.302 | 0.179
10 | NCI-H1944 | 0.728 | 0.786 | 0.665 | 0.555 | 0.553 | 0.65 | 0.719 | 0.589 | 0.64 | 0.545 | 0.869 | 0.83 | 0.926 | 0.713 | 0.382 | 0.404 | 0.362 | 0.233 | 0.208
11 | LK-2 | 0.193 | 0.196 | 0.201 | 0.169 | 0.175 | 0.291 | 0.238 | 0.284 | 0.208 | 0.24 | 1.26 | 1.23 | 1.35 | 0.682 | 0.221 | 0.187 | 0.188 | 0.188 | 0.18
12 | HCC-15 | 0.33 | 0.251 | 0.292 | 0.234 | 0.242 | 0.225 | 0.228 | 0.217 | 0.218 | 0.242 | 0.989 | 1.07 | 1.04 | 0.824 | 0.669 | 0.617 | 0.583 | 0.347 | 0.239
13 | NCI-H838 | 0.338 | 0.279 | 0.264 | 0.303 | 0.227 | 0.257 | 0.246 | 0.25 | 0.242 | 0.167 | 1.08 | 1.05 | 1.05 | 0.669 | 0.46 | 0.489 | 0.474 | 0.487 | 0.318
14 | HOP-62 | 0.882 | 0.983 | 0.833 | 0.863 | 0.44 | 0.298 | 0.3 | 0.301 | 0.29 | 0.162 | 1.2 | 1.13 | 1.03 | 1.1 | 0.801 | 0.882 | 0.85 | 0.49 | 0.248
15 | NCI-H322M | 0.988 | 0.981 | 0.742 | 0.735 | 0.484 | 0.685 | 0.588 | 0.565 | 0.628 | 0.621 | 0.93 | 1.07 | 0.859 | 0.683 | 0.608 | 0.54 | 0.558 | 0.483 | 0.371
16 | NCI-H1395 | 0.666 | 0.555 | 0.789 | 0.658 | 0.482 | 0.941 | 0.87 | 0.735 | 0.643 | 0.692 | 1.05 | 0.975 | 1.01 | 0.857 | 0.716 | 0.764 | 0.583 | 0.647 | 0.505
17 | NCI-H650 | 0.873 | 0.756 | 0.788 | 0.783 | 0.698 | 0.95 | 0.918 | 0.945 | 0.835 | 0.782 | 1.09 | 1.03 | 1.02 | 0.936 | 0.614 | 0.614 | 0.586 | 0.489 | 0.261
18 | NCI-H661 | 0.894 | 0.961 | 0.962 | 0.958 | 0.52 | 0.923 | 0.918 | 0.889 | 0.921 | 0.602 | 1.03 | 1.04 | 1.07 | 1.03 | 0.688 | 0.757 | 0.724 | 0.54 | 0.629
19 | NCI-H1734 | 0.169 | 0.197 | 0.204 | 0.182 | 0.156 | 0.393 | 0.427 | 0.36 | 0.351 | 0.33 | 0.786 | 0.913 | 0.927 | 0.483 | 0.635 | 0.772 | 0.59 | 0.5 | 0.488
20 | EKVX | 0.885 | 0.859 | 0.723 | 0.755 | 0.664 | 0.436 | 0.396 | 0.486 | 0.382 | 0.323 | 1.36 | 0.837 | 0.863 | 0.749 | 0.751 | 0.738 | 0.805 | 0.511 | 0.318
21 | NCI-H520 | 0.224 | 0.21 | 0.244 | 0.233 | 0.201 | 0.653 | 0.752 | 0.655 | 0.685 | 0.351 | 0.826 | 0.895 | 0.783 | 0.51 | 0.335 | 0.277 | 0.274 | 0.385 | 0.407
22 | NCI-H2342 | 0.746 | 0.768 | 0.719 | 0.665 | 0.596 | 0.839 | 0.739 | 0.753 | 0.796 | 0.713 | 1.22 | 1.07 | 1.04 | 1.04 | 0.651 | 0.587 | 0.629 | 0.598 | 0.524
23 | LOU-NH91 | 0.309 | 0.389 | 0.346 | 0.315 | 0.306 | 0.353 | 0.363 | 0.349 | 0.337 | 0.456 | 1.06 | 0.893 | 0.926 | 0.762 | 0.719 | 0.761 | 0.708 | 0.652 | 0.585
24 | COR-L23 | 0.761 | 0.99 | 0.89 | 0.667 | 0.467 | 0.202 | 0.204 | 0.194 | 0.162 | 0.167 | 0.976 | 0.92 | 1.02 | 0.931 | 0.67 | 0.599 | 0.621 | 0.291 | 0.264
25 | NCI-H1437 | 0.859 | 1.21 | 1.04 | 1.08 | 0.537 | 0.339 | 0.311 | 0.308 | 0.366 | 0.254 | 1.23 | 1.29 | 1.37 | 1.17 | 0.786 | 0.581 | 0.306 | 0.218 | 0.203
26 | EPLC-272H | 0.242 | 0.588 | 0.401 | 0.271 | 0.33 | 0.301 | 0.318 | 0.272 | 0.298 | 0.319 | 0.82 | 0.66 | 0.768 | 0.528 | 0.285 | 0.359 | 0.314 | 0.245 | 0.214
27 | ChaGo-K-1 | 0.635 | 0.582 | 0.513 | 0.526 | 0.518 | 0.271 | 0.256 | 0.251 | 0.237 | 0.237 | 0.834 | 0.96 | 0.993 | 0.741 | 0.606 | 0.513 | 0.56 | 0.436 | 0.378
28 | NCI-H1666 | 0.88 | 0.996 | 0.957 | 0.727 | 0.63 | 0.861 | 0.812 | 0.699 | 0.749 | 0.546 | 0.975 | 0.956 | 0.948 | 0.914 | 0.906 | 0.897 | 0.859 | 0.618 | 0.606
